Laboratory results from US20260109708A1, “COMPOUNDS AND COMPOSITIONS USEFUL AS DEGRADERS OF MK2 KINASE” (Celgene Corporation, priority 2023, published 2026).

Target: T1, p38a activated, mitogen-activated protein kinase-activated protein kinase 2 (MAPKAP-K2 or MK2) enzyme (Homo sapiens, UniProt P49137)
T1 construct: purchased Invitrogen PV3317
Experiment: MK2 OMNIA biochemical assay (AssayQuant continuous-read kinase assay)
Settings: [MK-2]=0.05 nM, [ATP]=100 μM, [AQT0425]=10 μM
Source text: Example 56.2. Mitogen-Activated Protein Kinase-Activated Protein Kinase 2 AssayQuant Technologies® Assay for Compound Potency Assessment (MK2 OMNIA Biochemical Assay)
The protocol below describes a continuous-read kinase assay optimized to measure potency of compounds against p38a activated, mitogen-activated protein kinase-activated protein kinase 2 (MAPKAP-K2 or MK2) enzyme.
A 1.25× stock solution of MK2 (PV3317, from Invitrogen) and a 5× stock solution of ATP and Sox conjugated peptide substrate, AQT0425 (CSKS-AQT0425B, from AssayQuant Technologies), were prepared in 1× kinase reaction buffer consisting of 50 mM HEPES, pH 7.5, 0.01% Brij-35, 0.55 mM EGTA, 10 mM MgCl2 and 1 mM DTT.
10 μL of the ATP and substrate solution mix was added to a Coming (3574) 384-well, white, non-binding surface microtiter plate containing 0.5 μL of serially diluted test compounds prepared in DMSO. The reactions were started with the addition of 40 μL of the enzyme solution and monitored every 71 seconds for 240 min at kex 360/λem 485 in a Synergy H4 plate reader from BioTek at room temperature.
The initial linear portions of the net progress curves were fit according to a linear equation to yield the slope and percentage of inhibition (% inhibition) at each compound concentration. The net progress curves obtained during the entirety of reactions were also fit according to an ascending single-exponential equation (Eq. 1) to yield Vobs values at each compound concentration. Plots of % Inhibition versus degrader concentrations were fit according to a dose-response equation (Eq. 2) to generate IC50 and Hill slope values while plots of Vobs versus degrader concentration were fit according to Equation 3 (Eq. 3) to generate apparent Kinact values using the GraphPad PRISM software.
where F is the fluorescence intensity from the plate reader, V0 is a constant reflecting the relationship between the instrument readout and product concentration, t is time, e is Euler's number, and Vobs is the observed inactivation rate constant.
where % Inhibition is percentage of inhibition, IC50 is half maximal inhibitory concentration, [I] is the degraders concentration, and n is the Hill slope.
where kobs is the observed inactivation rate constant, Kinact is the apparent inactivation rate constant, K1 is the apparent inhibition constant, and [I] is the degrader concentration.

T1 sequence (P49137 whole entry): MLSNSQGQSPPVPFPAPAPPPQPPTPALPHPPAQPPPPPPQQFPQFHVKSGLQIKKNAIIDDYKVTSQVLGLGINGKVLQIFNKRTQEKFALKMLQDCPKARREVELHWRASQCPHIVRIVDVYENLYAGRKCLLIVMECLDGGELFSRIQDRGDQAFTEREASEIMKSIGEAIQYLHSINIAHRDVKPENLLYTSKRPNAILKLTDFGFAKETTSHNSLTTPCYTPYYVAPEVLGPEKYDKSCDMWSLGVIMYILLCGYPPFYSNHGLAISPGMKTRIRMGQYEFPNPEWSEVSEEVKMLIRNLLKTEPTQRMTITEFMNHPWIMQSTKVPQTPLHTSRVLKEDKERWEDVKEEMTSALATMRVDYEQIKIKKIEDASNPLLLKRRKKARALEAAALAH

Row | SMILES | IC50 [nM]
1 | C[C@@H]1COc2c(sc3ccc4nc(-c5ccc(C6CN(CCN7CCN(c8ccc(C9CCC(=O)NC9=O)cc8)CC7)C6)cc5)ccc4c23)C(=O)N1 (stereo partly drawn) [Ex 33, 3-(4-(4-(2-(3-(4-((R)-10-Methyl-8-oxo-8,9,10,11-tetrahydro-[1,4]oxazepino[7′,6′:4,5]thieno[3,2-f]quinolin-3-yl)phenyl)azetidin-1-yl)ethyl)piperazin-1-yl)phenyl)piperidine-2,6-dione] | < 150
2 | C[C@@H]1CNc2c(sc3ccc4nc(-n5cc(C6CCN(CCN7CCN(c8ccc(C9CCC(=O)NC9=O)cc8)CC7)CC6)nn5)ccc4c23)C(=O)N1 (stereo partly drawn) [Ex 45, 3-(4-(4-(2-(4-(1-((R)-10-Methyl-8-oxo-9,10,11,12-tetrahydro-8H-[1,4]diazepino[5′,6′:4,5]thieno[3,2-f]quinolin-3-yl)-1H-1,2,3-triazol-4-yl)piperidin-1-yl)ethyl)piperazin-1-yl)phenyl)piperidine-2,6-dione] | < 150
3 | C[C@@H]1CNc2c(sc3ccc4nc(-c5cnn(C6CN(CCN7CCN(c8ccc9c(C%10CCC(=O)NC%10=O)nn(C)c9c8)CC7)C6)c5)ccc4c23)C(=O)N1 (stereo partly drawn) [Ex 52, 3-(1-Methyl-6-(4-(2-(3-(4-((R)-10-methyl-8-oxo-9,10,11,12-tetrahydro-8H-[1,4]diazepino[5′,6′:4,5]thieno[3,2-f]quinolin-3-yl)-1H-pyrazol-1-yl)azetidin-1-yl)ethyl)piperazin-1-yl)-1H-indazol-3-yl)piperidine-2,6-dione] | < 150
4 | C[C@@H]1CNc2c(sc3ccc4nc(-c5ccc(N6CCC(CN7CCN(c8ccc(C9CCC(=O)NC9=O)cc8)CC7)CC6)cc5)ccc4c23)C(=O)N1 (stereo partly drawn) [Ex 38, 3-(4-(4-((1-(4-((R)-10-Methyl-8-oxo-9,10,11,12-tetrahydro-8H-[1,4]diazepino[5′,6′:4,5]thieno[3,2-f]quinolin-3-yl)phenyl)piperidin-4-yl)methyl)piperazin-1-yl)phenyl)piperidine-2,6-dione] | 151 to 500
5 | C[C@@H]1CNc2c(sc3ccc4nc(-c5ccc(C(=O)NC6CCN(c7ccc(C8CCC(=O)NC8=O)cc7)CC6)cc5F)ccc4c23)C(=O)N1 (stereo partly drawn) [Ex 7, N-(1-(4-(2,6-Dioxopiperidin-3-yl)phenyl)piperidin-4-yl)-3-fluoro-4-((R)-10-methyl-8-oxo-9,10,11,12-tetrahydro-8H-[1,4]diazepino[5′,6′:4,5]thieno[3,2-f]quinolin-3-yl)benzamide] | < 150
6 | C[C@@H]1CNc2c(sc3ccc4nc(-c5ccc(C(=O)NCCN6CCN(c7ccc(C8CCC(=O)NC8=O)cc7)CC6)cc5F)ccc4c23)C(=O)N1 (stereo partly drawn) [Ex 8, N-(2-(4-(4-(2,6-Dioxopiperidin-3-yl)phenyl)piperazin-1-yl)ethyl)-3-fluoro-4-((R)-10-methyl-8-oxo-9,10,11,12-tetrahydro-8H-[1,4]diazepino[5′,6′:4,5]thieno[3,2-f]quinolin-3-yl)benzamide] | < 150
7 | C[C@@H]1CNc2c(sc3ccc4nc(-c5cccc(N6CCN(CCN7CCN(c8ccc(C9CCC(=O)NC9=O)cc8)CC7)CC6)c5)ccc4c23)C(=O)N1 (stereo partly drawn) [Ex 11, 3-(4-(4-(2-(4-(3-((R)-10-Methyl-8-oxo-9,10,11,12-tetrahydro-8H-[1,4]diazepino[5′,6′:4,5]thieno[3,2-f]quinolin-3-yl)phenyl)piperazin-1-yl)ethyl)piperazin-1-yl)phenyl)piperidine-2,6-dione] | < 150
8 | C[C@@H]1CNc2c(sc3ccc4nc(-c5ccc(C6CCN(CCN7CCN(c8ccc9c(C%10CCC(=O)NC%10=O)nn(C)c9c8)CC7)CC6)cc5)ccc4c23)C(=O)N1 (stereo partly drawn) [Ex 28, 3-(1-Methyl-6-(4-(2-(4-(4-((R)-10-methyl-8-oxo-9,10,11,12-tetrahydro-8H-[1,4]diazepino[5′,6′:4,5]thieno[3,2-f]quinolin-3-yl)phenyl)piperidin-1-yl)ethyl)piperazin-1-yl)-1H-indazol-3-yl)piperidine-2,6-dione] | < 150
9 | C[C@@H]1COc2c(sc3ccc4nc(-c5ccc(C6CCN(CCN7CCN(c8ccc(C9CCC(=O)NC9=O)cc8)CC7)CC6)cc5)ccc4c23)C(=O)N1 (stereo partly drawn) [Ex 32, 3-(4-(4-(2-(4-(4-((R)-10-Methyl-8-oxo-8,9,10,11-tetrahydro-[1,4]oxazepino[7′,6′:4,5]thieno[3,2-f]quinolin-3-yl)phenyl)piperidin-1-yl)ethyl)piperazin-1-yl)phenyl)piperidine-2,6-dione] | 151 to 500
10 | C[C@@H]1CNc2c(sc3ccc4nc(-c5ccc(N6CC(CN7CCN(c8ccc(C9CCC(=O)NC9=O)cc8)CC7)C6)cc5)ccc4c23)C(=O)N1 (stereo partly drawn) [Ex 41, 3-(4-(4-((1-(4-((R)-10-Methyl-8-oxo-9,10,11,12-tetrahydro-8H-[1,4]diazepino[5′,6′:4,5]thieno[3,2-f]quinolin-3-yl)phenyl)azetidin-3-yl)methyl)piperazin-1-yl)phenyl)piperidine-2,6-dione] | < 150
11 | C[C@@H]1CNc2c(sc3ccc4nc(-c5cnn(C6CCN(CCN7CCN(c8ccc9c(C%10CCC(=O)NC%10=O)nn(C)c9c8)CC7)CC6)c5)ccc4c23)C(=O)N1 (stereo partly drawn) [Ex 44, 3-(1-Methyl-6-(4-(2-(4-(4-((R)-10-methyl-8-oxo-9,10,11,12-tetrahydro-8H-[1,4]diazepino[5′,6′:4,5]thieno[3,2-f]quinolin-3-yl)-1H-pyrazol-1-yl)piperidin-1-yl)ethyl)piperazin-1-yl)-1H-indazol-3-yl)piperidine-2,6-dione] | < 150

Second part, the molecule after the results:

Row | IC50 [nM] | SMILES
12 | 151 to 500 | C[C@@H]1CNc2c(sc3ccc4nc(-c5ccc(N6CCC(CCN7CCC(c8ccc(C9CCC(=O)NC9=O)cc8)CC7)CC6)cc5)ccc4c23)C(=O)N1 (stereo partly drawn) [Ex 40, 3-(4-(1-(2-(1-(4-((R)-10-Methyl-8-oxo-9,10,11,12-tetrahydro-8H-[1,4]diazepino[5′,6′:4,5]thieno[3,2-f]quinolin-3-yl)phenyl)piperidin-4-yl)ethyl)piperidin-4-yl)phenyl)piperidine-2,6-dione]
13 | < 150 | C[C@@H]1CNc2c(sc3ccc4nc(-n5cc(C6CCN(CCN7CCC(c8ccc(C9CCC(=O)NC9=O)cc8)CC7)CC6)nn5)ccc4c23)C(=O)N1 (stereo partly drawn) [Ex 47, 3-(4-(1-(2-(4-(1-((R)-10-Methyl-8-oxo-9,10,11,12-tetrahydro-8H-[1,4]diazepino[5′,6′:4,5]thieno[3,2-f]quinolin-3-yl)-1H-1,2,3-triazol-4-yl)piperidin-1-yl)ethyl)piperidin-4-yl)phenyl)piperidine-2,6-dione]
14 | < 150 | C[C@@H]1CNc2c(sc3ccc4nc(-c5ccc(C6CCN(CCN7CCN(c8ccc(C9CCC(=O)NC9=O)cc8)CC7)CC6)nn5)ccc4c23)C(=O)N1 (stereo partly drawn) [Ex 37, 3-(4-(4-(2-(4-(6-((R)-10-Methyl-8-oxo-9,10,11,12-tetrahydro-8H-[1,4]diazepino[5′,6′:4,5]thieno[3,2-f]quinolin-3-yl)pyridazin-3-yl)piperidin-1-yl)ethyl)piperazin-1-yl)phenyl)piperidine-2,6-dione]
15 | < 150 | C[C@@H]1CNc2c(sc3ccc4nc(-c5cccc(N6CCN(CCN7CCN(c8ccc9c(C%10CCC(=O)NC%10=O)nn(C)c9c8)CC7)CC6)c5)ccc4c23)C(=O)N1 (stereo partly drawn) [Ex 12, 3-(1-Methyl-6-(4-(2-(4-(3-((R)-10-methyl-8-oxo-9,10,11,12-tetrahydro-8H-[1,4]diazepino[5′,6′:4,5]thieno[3,2-f]quinolin-3-yl)phenyl)piperazin-1-yl)ethyl)piperazin-1-yl)-1H-indazol-3-yl)piperidine-2,6-dione]
16 | 151 to 500 | C[C@@H]1CNc2c(sc3ccc4nc(-c5ccc(N6CCN(CCN7CCN(c8ccc9c(C%10CCC(=O)NC%10=O)nn(C)c9c8)CC7)CC6)cc5)ccc4c23)C(=O)N1 (stereo partly drawn) [Ex 21, 3-(1-Methyl-6-(4-(2-(4-(4-((R)-10-methyl-8-oxo-9,10,11,12-tetrahydro-8H-[1,4]diazepino[5′,6′:4,5]thieno[3,2-f]quinolin-3-yl)phenyl)piperazin-1-yl)ethyl)piperazin-1-yl)-1H-indazol-3-yl)piperidine-2,6-dione]
17 | < 150 | C[C@@H]1CNc2c(sc3ccc4nc(-c5ccc(N6CCN(C(=O)C(=O)N7CCN(c8ccc(C9CCC(=O)NC9=O)cc8)CC7)CC6)cc5)ccc4c23)C(=O)N1 (stereo partly drawn) [Ex 23, 3-(4-(4-(2-(4-(4-((R)-10-Methyl-8-oxo-9,10,11,12-tetrahydro-8H-[1,4]diazepino[5′,6′:4,5]thieno[3,2-f]quinolin-3-yl)phenyl)piperazin-1-yl)-2-oxoacetyl)piperazin-1-yl)phenyl)piperidine-2,6-dione]
